The results in this text go back to ChEMBL document CHEMBL4622890, “Antiproliferative Flavanoid Dimers Isolated from Brazilian Red Propolis” (J Nat Prod, 2020).

pIC50: −log10 of the molar value.

One assay has as its target Transcription factor p65 (Homo sapiens, UniProt Q04206). Put plainly: Inhibition of NF-kappaB p65 in human HeLa cells nuclear extract by chemiluminescent assay. The assay is classed as cell-free.
For a further assay, the system named is HT-29. Briefly: Cytotoxicity against human HT-29 cells after 3 days by sulforhodamine B assay. The assay is classed as functional, cell-based. The note with it: HT-29, 72 h.
The nature of assay [1]: Antioxidant activity assessed as hydroxyl radical scavenging activity after 5 mins by H2DCF-DA dye based fluorescence spectrophotometric analysis. The assay is classed as functional.
Assay [2] in a line: Chemopreventive index, ratio of IC50 for mouse Hepa-1c1c7 cells to drug level required to double NADPH:quinone reductase activity in mouse Hepa-1c1c7 cells.
A further assay has as its system U-251. Briefly: Cytotoxicity against human U251 cells after 48 hrs by MTT assay. The assay is classed as functional. The note with it: U-251, 48 h.
Another assay deals with PC-3. Put plainly: Cytotoxicity against human PC3 cells after 48 hrs by MTT assay. The note with it: PC-3, 48 h. The assay is classed as functional.
A further assay deals with MCF7. Put plainly: Cytotoxicity against human MCF7 cells after 48 hrs by MTT assay. The assay is classed as functional. The following applies: MCF7, 48 h.
The subject of the next assay is NCI/ADR-RES. Put plainly: Cytotoxicity against human NCI-ADR-RES cells after 48 hrs by MTT assay. The assay is classed as functional.

Sequence of Transcription factor p65 (Q04206 whole entry): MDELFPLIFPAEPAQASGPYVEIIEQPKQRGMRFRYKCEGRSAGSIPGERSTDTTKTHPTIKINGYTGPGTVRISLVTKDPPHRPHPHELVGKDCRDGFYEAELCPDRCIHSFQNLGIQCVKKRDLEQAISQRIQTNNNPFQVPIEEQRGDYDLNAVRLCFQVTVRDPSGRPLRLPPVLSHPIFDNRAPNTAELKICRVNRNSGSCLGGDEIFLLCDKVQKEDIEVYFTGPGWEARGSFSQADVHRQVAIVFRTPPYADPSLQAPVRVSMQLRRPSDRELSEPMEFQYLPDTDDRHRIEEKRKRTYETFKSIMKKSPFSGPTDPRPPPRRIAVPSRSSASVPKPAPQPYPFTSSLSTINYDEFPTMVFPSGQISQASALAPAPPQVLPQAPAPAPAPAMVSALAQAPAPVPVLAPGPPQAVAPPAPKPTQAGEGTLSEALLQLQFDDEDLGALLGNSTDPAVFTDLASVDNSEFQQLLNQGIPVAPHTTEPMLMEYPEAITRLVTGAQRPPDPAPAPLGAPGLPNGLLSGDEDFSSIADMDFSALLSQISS

As for `C=CC(C)(C)c1cc(C(=O)c2c(-c3cc(-c4cc5cc(C(C)(C)C=C)c(O)cc5oc4=O)c(O)cc3O)oc3cc(O)ccc23)c(O)cc1O`, the pIC50 was 8.22 against Transcription factor p65 and 5.35 to 5.80 in the assay with HT-29. In addition, in assay [1], the ED50 was 0.7 to 0.9 µM. In assay [2], the Ratio is given as 1.3 - 7.4.

In the case of `COc1ccc2c(c1)OCC(c1cc(-c3oc4cc(OC)ccc4c3Cc3ccc(O)cc3O)c(O)cc1O)C2` (stereo not drawn), the TGI in the assay on U-251 is 25 µM; in the assay with PC-3 it was 21.9 µM; in the assay on MCF7, 34.6 µM; in the assay with NCI/ADR-RES, 29.9 µM. In the assay with PC-3, the LC50 was at least 10 µM.

Take `COc1cccc2c1C(=O)c1c(O)c3c(c(O)c1C2=O)C[C@@](O)(C(=O)CO)C[C@@H]3O[C@H]1C[C@H](N)[C@H](O)[C@H](C)O1` [DOXORUBICIN]: the TGI came out at 6.9 µM in the assay with U-251, 4 µM with PC-3, 12.2 µM in the assay on MCF7 and 16.1 µM in the assay on NCI/ADR-RES.

The compound `COc1ccc2c(c1)OCC(c1cc(Cc3c(-c4ccc(O)cc4O)oc4cc(OC)ccc34)c(O)cc1O)C2` (stereo not drawn) gave a TGI in the assay on U-251 of 17.2 µM. Also, the CC50 with U-251 (read-out: LC50 (the source's name)) was at least 10 µM. In the assay on PC-3, the LC50 was at least 10 µM and the total growth inhibition concentration (TGI) is 19.1 µM. In the assay on MCF7, the LC50 (lethal concentration 50%) was at least 10 µM and the TGI came to 27 µM. Also, in the assay on NCI/ADR-RES, the LC50 (concentration killing 50% of cells) was at least 10 µM and the concentration for total growth inhibition (TGI) came out at 19.1 µM.

`C[S+]([O-])CCCCN=C=S` (stereo not drawn) [SULFORAPHANE]: the Ratio in assay [2] is on record as 21.4.

As for `C=CC(C)(C)c1cc2c(cc1O)OC[C@H](c1cc(-c3oc4cc(O)ccc4c3C(=O)c3cc(C(C)(C)C=C)c(O)cc3O)c(O)cc1O)C2`, in the assay on HT-29, the negative-log IC50 (pIC50) is 5.35 to 5.80. Besides, the ED50 in assay [1] lay within 0.7 to 0.9 µM. Moreover, the Ratio in assay [2] was 1.3 - 7.4.

Take `C=CC(C)(C)c1cc(-c2oc3cc(O)ccc3c2Cc2cc(-c3cc4cc(C(C)(C)C=C)c(O)cc4oc3=O)c(O)cc2O)c(O)cc1O`: in the assay on HT-29, the negative-log IC50 (pIC50) is 5.35 to 5.80. Moreover, the ED50 in assay [1] is 0.7 to 0.9 µM. Further, in assay [2], the Ratio is recorded as 1.3 - 7.4.
